The target in test [1] is T1, TrpC7 (Homo sapiens, UniProt O94759, Q1189R).
T1 construct: expressed in transfected cells; host or cells: HEK293 cells expressing the tetracycline repressor (pcDNA6/TR); construct in pcDNA4/TO
The test can be described thus: Whole-cell patch-clamp of membrane currents in tetracycline-inducible HEK293 cells expressing FLAG-TrpC7. The following applies: for gating of TrpC7 / induced plasma membrane currents: 100 μM in patch pipette, currents at -80 mV; for gating of TrpC7 / induced plasma membrane currents / gating of TrpC7: after tetracycline induction. The test is classed as cell-based. The method, then:
Wild type and tetracycline-inducible HEK293 FLAG-TrpC7 expressing cells were cultured at 37° C./5% CO2 in DMEM supplemented with 10% FBS and 2 mM glutamine. The medium was supplemented with blasticidin (5 μg/ml; Invitrogen) and zeocin (0.4 mg/ml; Invitrogen). Cells were resuspended in media containing 1 μg/ml tetracycline (Invitrogen) 24 hours before patch-clamp experiments.
For patch-clamp experiments, coverslips were transferred to the recording chamber and kept in a standard modified Ringer's solution of the following composition (in mM): NaCl 145, KCl 2.8, CaCl2 1, MgCl2 2, glucose 10, Hepes-NaOH 10, pH 7.2. Intracellular pipette-filling solutions contained (in mM): Cs-glutamate 145, NaCl 8, MgCl2 1, Cs-BAPTA 10, pH 7.2 adjusted with CsOH. […] The agonists were dissolved in the standard intracellular solution. Ionomycin (Sigma) was added to the extracellular standard solution.
Patch-clamp experiments were performed in the tight-seal whole-cell configuration at 21-25° C. High-resolution current recordings were acquired by a computer-based patch-clamp amplifier system (EPC-9, HEKA, Lambrecht, Germany). […] Immediately following establishment of the whole-cell configuration, voltage ramps of 50 ms duration spanning the voltage range of −100 to +100 mV were delivered from a holding potential of 0 mV at a rate of 0.5 Hz over a period of 200 to 400 seconds. All voltages were corrected for a liquid junction potential of 10 mV between external and internal solutions. Currents were filtered at 2.9 kHz and digitized at 100 μs intervals. Capacitive currents and series resistance were determined and corrected before each voltage ramp using the automatic capacitance compensation of the EPC-9. For analysis, the very first ramps were digitally filtered at 2 kHz, pooled and used for leak-subtraction of all subsequent current records. The low-resolution temporal development of currents at a given potential was extracted from the leak-corrected individual ramp current records by measuring the current amplitudes at voltages of −80 mV or +80 mV.
For orientation: Patch clamp records ionic current or voltage across a cell membrane.

In test [2] the target is T2, TrpC7 NUDT9 homology region (Homo sapiens, UniProt O94759).
T2 construct: an NcoI site, an artificial start codon, amino acids 1197-1503, a stop codon, and a 3′ NotI site; Met from artificial start codon (N); made in house; host or cells: E. coli BL21 (DE3), pET-24d
Briefly: Nudix type enzyme assay (ADP-ribose hydrolysis, liberated orthophosphate), TrpC7 NUDT9 homology region. The test is classed as biochemical. The following applies: ADP-ribose as substrate. The method, then: (§1) BL21 (DE3) cells containing the respective expression plasmids were grown at 37° C. in LB broth on a shaker to an A600 of about 0.6 and induced by the addition of isopropyl-β-D-thiogalactopyranoside to a concentration of 1 mM. The cells were allowed to grow for an additional 4 h, harvested, washed by suspension in isotonic saline, centrifuged in pre-weighed centrifuge tubes, and the packed cells were stored at −80° C. […] In the case of NUDT9, enzyme was extracted in the freeze-thaw fraction and ammonium sulfate was added to 35% final concentration. The precipitate was discarded after centrifugation and ammonium sulfate was added to the supernatant to a final concentration of 50%. The precipitate was collected by centrifugation, dissolved then chromatographed, then chromatographed on a gel filtration column (Sephadex G-100). […]
(§2) Enzyme Assay—Enzyme velocities were quantified by measuring the conversion of a phosphatase-insensitive substrate, ADP-ribose, to the phosphatase-sensitive products, AMP and ribose-5-phosphate. The liberated inorganic orthophosphate was measured by the procedure of Ames and Dubin (Ames, B. N., and Dubin, D. T., J. Biol. Chem. 1960, 235:769-775). […] After 30 min at 37° C., the reaction was terminated by the addition of EDTA and inorganic orthophosphate was measured.
(§3) Km and Vmax were calculated by non-linear regression analysis of Lineweaver-Burke plots.

Test [3] deals with T3, NUDT9 (mutTCCH-1) (Homo sapiens, UniProt Q9BW91).
T3 construct: made in house; host or cells: E. coli BL21 (DE3), pET-24d
T3 sequence (Q9BW91 47-350): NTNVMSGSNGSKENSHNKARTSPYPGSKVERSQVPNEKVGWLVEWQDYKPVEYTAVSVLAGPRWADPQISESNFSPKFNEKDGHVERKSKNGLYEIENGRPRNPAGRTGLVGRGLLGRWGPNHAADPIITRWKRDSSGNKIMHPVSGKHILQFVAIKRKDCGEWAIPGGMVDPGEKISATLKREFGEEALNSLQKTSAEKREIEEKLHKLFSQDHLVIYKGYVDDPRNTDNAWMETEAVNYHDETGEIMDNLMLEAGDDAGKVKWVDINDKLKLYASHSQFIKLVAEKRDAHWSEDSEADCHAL
Briefly: Nudix type enzyme assay, substrate screen with recombinant NUDT9. Type of test: biochemical. The following applies: panel of nucleoside diphosphate derivatives; products AMP and ribose-5-phosphate. On the procedure: as §1, §2, §3

The subject of test [4] is non-selective plasma membrane ion channel in ascidian oocytes. To be noted: cited from earlier work.
The mark [5] stands for this setting: intracellular perfusion, current magnitude and latency.

SMILES strings stand for the structures. Entries after “also recorded” stand apart in the source; their conditions may differ. Bounds are passed on as bounds.

T1 sequence (O94759 3-1503 Q1189R): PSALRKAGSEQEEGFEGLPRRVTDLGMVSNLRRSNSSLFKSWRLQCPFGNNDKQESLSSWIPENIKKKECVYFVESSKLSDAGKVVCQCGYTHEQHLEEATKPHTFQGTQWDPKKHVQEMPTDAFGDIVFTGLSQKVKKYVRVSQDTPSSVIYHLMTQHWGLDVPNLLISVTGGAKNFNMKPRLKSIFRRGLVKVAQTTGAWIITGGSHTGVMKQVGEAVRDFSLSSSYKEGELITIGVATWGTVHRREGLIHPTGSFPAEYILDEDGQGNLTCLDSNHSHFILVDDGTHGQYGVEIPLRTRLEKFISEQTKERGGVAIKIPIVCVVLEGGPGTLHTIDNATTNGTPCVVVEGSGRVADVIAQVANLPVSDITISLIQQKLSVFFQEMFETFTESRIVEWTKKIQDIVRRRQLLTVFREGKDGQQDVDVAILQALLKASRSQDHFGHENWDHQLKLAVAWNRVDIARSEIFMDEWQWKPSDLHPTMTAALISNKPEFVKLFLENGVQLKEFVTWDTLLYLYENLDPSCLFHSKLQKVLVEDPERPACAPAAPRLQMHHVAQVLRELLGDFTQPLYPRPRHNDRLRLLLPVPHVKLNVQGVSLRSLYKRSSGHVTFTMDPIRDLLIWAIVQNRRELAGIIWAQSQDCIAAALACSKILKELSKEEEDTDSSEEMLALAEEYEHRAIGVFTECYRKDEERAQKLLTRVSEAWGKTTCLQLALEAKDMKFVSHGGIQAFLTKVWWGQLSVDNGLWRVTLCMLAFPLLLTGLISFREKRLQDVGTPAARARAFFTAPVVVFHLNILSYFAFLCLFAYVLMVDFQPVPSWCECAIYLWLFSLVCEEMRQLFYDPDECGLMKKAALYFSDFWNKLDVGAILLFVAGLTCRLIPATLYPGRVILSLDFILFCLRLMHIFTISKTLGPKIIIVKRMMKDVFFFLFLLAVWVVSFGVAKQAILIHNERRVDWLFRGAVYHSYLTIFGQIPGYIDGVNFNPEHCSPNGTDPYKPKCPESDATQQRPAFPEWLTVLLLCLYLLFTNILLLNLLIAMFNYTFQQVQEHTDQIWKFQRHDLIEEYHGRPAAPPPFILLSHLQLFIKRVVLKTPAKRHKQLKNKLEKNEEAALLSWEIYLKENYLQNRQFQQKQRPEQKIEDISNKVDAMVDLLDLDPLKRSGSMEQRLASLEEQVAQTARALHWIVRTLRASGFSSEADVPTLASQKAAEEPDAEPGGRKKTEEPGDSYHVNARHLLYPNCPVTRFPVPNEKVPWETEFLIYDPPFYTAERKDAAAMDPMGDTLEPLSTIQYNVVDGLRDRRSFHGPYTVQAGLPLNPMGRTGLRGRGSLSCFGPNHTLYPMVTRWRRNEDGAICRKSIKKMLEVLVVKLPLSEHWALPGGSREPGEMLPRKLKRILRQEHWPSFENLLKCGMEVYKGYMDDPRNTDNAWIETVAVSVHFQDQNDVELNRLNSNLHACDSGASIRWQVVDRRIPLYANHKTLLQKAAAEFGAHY
T2 sequence (O94759 1197-1503): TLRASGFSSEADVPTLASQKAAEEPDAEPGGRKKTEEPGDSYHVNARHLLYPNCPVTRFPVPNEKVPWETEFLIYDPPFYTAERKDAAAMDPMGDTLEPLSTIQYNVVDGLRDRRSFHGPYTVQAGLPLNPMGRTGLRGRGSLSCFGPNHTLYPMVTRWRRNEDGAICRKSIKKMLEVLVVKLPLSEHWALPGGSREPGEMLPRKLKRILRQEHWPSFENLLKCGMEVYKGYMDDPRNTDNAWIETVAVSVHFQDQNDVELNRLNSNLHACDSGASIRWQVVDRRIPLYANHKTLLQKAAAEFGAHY

Turning to `Nc1ncnc2c1ncn2[C@@H]1O[C@H](COP(=O)(O)OP(=O)(O)O[C@H]2O[C@H](CO)[C@@H](O)[C@H](O)[C@H]2O)[C@@H](O)[C@H]1O` [ADP-glucose], the “gating of TrpC7 / induced plasma membrane currents” value in test [1] was “no detectable gating”.
`Nc1ncnc2c1ncn2[C@@H]1O[C@H](COP(=O)(O)OP(=O)(O)O[C@H]2O[C@H](CO)[C@@H](O)[C@H](O)[C@@H]2O)[C@@H](O)[C@H]1O` [ADP-mannose]: in test [1], the “gating of TrpC7 / induced plasma membrane currents” value is “no detectable gating”.
For `Nc1ncnc2c1ncn2[C@@H]1O[C@H](COP(=O)(O)OP(=O)(O)OC[C@H]2OC(O)[C@H](O)[C@@H]2O)[C@@H](O)[C@H]1O` (some centres unmarked) [ADP-ribose, Adenosine 5-diphospho (ADP)-ribose], in test [1], the “gating of TrpC7 / induced plasma membrane currents” value was “extremely large currents are induced; also recorded: large inward currents”. For the same compound, the “currents induced by intracellular perfusion” value in test [1] (300 μM, tetracycline-induced cells, -80 mV and +80 mV) was “almost linear cationic currents with slight outward rectification”. In test [1] (setting [5]), the “concentration at which TrpC7 activation begins to occur” value is given as 60-100 μLM and the “concentration at which TrpC7 activation saturates” value is reported as “around 300 μM”. In addition, the Kd in test [1] (peak current amplitudes at -80 mV, 10 μM to 1 mM, read-out: apparent KD of dose-response curve for gating of TrpC7) is 90 µM. In addition, the “effect on plasma membrane currents” value in test [1] (without tetracycline induction (no FLAG-TrpC7 expression)) was “no detectable effect”. Further, the “activity relative to that observed for NUDT9” value in test [2] was “approximately 1%”. Moreover, in test [2] (E. coli expressed protein), the “Vmax (specific activity)” value was 0.1 μmol/min/mg protein. Moreover, the “substrate specificity of recombinant NUDT9” value in test [3] is listed as “highly specific ADP-ribose pyrophosphatase”. The “concentration that gates the currents” value in test [4] is ≥ 10 nM.
For the compound `Nc1nc2c(ncn2[C@@H]2O[C@H](COP(=O)(O)OP(=O)(O)O[C@H]3O[C@H](CO)[C@@H](O)[C@H](O)[C@H]3O)[C@@H](O)[C@H]2O)c(=O)[nH]1` [GDP-glucose, guanosine 5-diphospho (GDP)-glucose], the “gating of TrpC7 / induced plasma membrane currents” value in test [1] is reported as “no detectable gating”.
`Nc1nc2c(ncn2[C@@H]2O[C@H](COP(=O)(O)OP(=O)(O)O[C@H]3O[C@H](CO)[C@@H](O)[C@H](O)[C@@H]3O)[C@@H](O)[C@H]2O)c(=O)[nH]1` [GDP-mannose]: the “gating of TrpC7 / induced plasma membrane currents” value in test [1] is “no detectable gating”.
Regarding `N=c1c2ncn3c2ncn1[C@@H]1O[C@H](COP(=O)(O)OP(=O)(O)OC[C@H]2O[C@@H]3[C@H](O)[C@@H]2O)[C@@H](O)[C@H]1O` [cyclic ADP-ribose, cyclic ADP-Ribose], the “gating of TrpC7 / induced plasma membrane currents” value in test [1] is recorded as “no detectable gating”.
Regarding `O=P(O)(O)O[C@@H]1[C@H](O)[C@H](O)[C@@H](OP(=O)(O)O)[C@H](OP(=O)(O)O)[C@H]1O` [inositol-1,4,5-trisphosphate, inositol 1,4,5-trisphosphate], the “gating of TrpC7” value in test [1] (20 μM in patch pipette) was “no detectable gating”.
Take `C[C@H](CCC(=O)O)C[C@H](C)C[C@H](C)C(=O)/C=C(\O)[C@H](C)C[C@H](C)C/C=C/[C@@H](C)[C@@H](O)[C@@H](C)[C@@H](O)C[C@@H]1CC[C@@](C)([C@H]2CC[C@@](C)([C@@H](C)O)O2)O1` [ionomycin, Ionomycin]: in test [1] (10 μM, added to the extracellular solution), the “gating of TrpC7” value is “no detectable gating”.

Values taken from patent publication US8153400B1, “Nucleic acids encoding a mutT domain-containing polypeptide” (Beth Israel Deaconess Medical Center, Inc., priority 1999, dated 2012).
